Here are results for five compounds from patent publication US3960877A, “N-monosubstituted-2,3-pyridinedicarboxamides, and related compounds” (priority 1974, dated 1976).

Each structure is given as a SMILES string.

What all share (assay type): in vivo
Experiment [1] deals with Alfalfa. Nature of the experiment: Preemergence herbicidal activity, % control of plant growth. The note with it: Medicago sativa, pre-emergence, 504 h, 16 lb/acre, about 3 weeks. Summed up: (§1)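 Compound applied at 16 pounds per acre as roughly a 2 percent by weight acetone and/or alcohol solution, sprayed onto freshly seeded soil before any noticeable growth. About three weeks later, treated areas were visually compared with untreated controls and scored as percent growth control.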

The test system of experiment [2] is Barnyard Grass. Described as above. Conditions: Echinochloa crus-galli, pre-emergence, 504 h; barnyard grass; 16 lb/acre; about 3 weeks. Summed up: as §1
Experiment [3] relates to Cheatgrass. The description is as above. Conditions: Bromus tectorum, pre-emergence, 504 h, 16 lb/acre, about 3 weeks. A digest of the protocol:
as §1

Experiment [4] concerns Chickweed. The description is as above. The note with it: pre-emergence, 504 h, 16 lb/acre, about 3 weeks. Summed up: as §1
Experiment [5] has as its system Corn. The experiment is described as above. Conditions: Zea mays, pre-emergence, 504 h, 16 lb/acre, about 3 weeks. Summed up: as §1
Experiment [6] deals with Crabgrass. The experiment is described as above. The note with it: Digitaria sanguinalis, pre-emergence, 504 h, 16 lb/acre, about 3 weeks. Summed up:
as §1

Experiment [7] concerns Cucumber. Described as above. Conditions: Cucumis sativus, pre-emergence, 504 h, 16 lb/acre, about 3 weeks. Summed up: as §1
The subject of experiment [8] is Curled Dock. The description is as above. The note with it: pre-emergence, 504 h, 16 lb/acre, about 3 weeks. Summed up:
as §1

In experiment [9] the test system is Foxtail. The description is as above. The note with it: Setaria, pre-emergence, 504 h, 16 lb/acre, about 3 weeks. A digest of the protocol: as §1
Experiment [10] concerns Johnsongrass. Described as above. The note with it: Sorghum halepense, pre-emergence, 504 h, 16 lb/acre, about 3 weeks. Summed up:
as §1

The subject of experiment [11] is Lambsquarters. The experiment is described as above. Conditions: Chenopodium album, pre-emergence, 504 h, 16 lb/acre, about 3 weeks. Summed up:
as §1

Experiment [12] relates to Nutgrass. The experiment is described as above. Conditions: pre-emergence, 504 h, 16 lb/acre, about 3 weeks. A digest of the protocol:
as §1

In experiment [13] the test system is Pigweed. Described as above. The note with it: Amaranthus retroflexus, pre-emergence, 504 h, 16 lb/acre, about 3 weeks. A digest of the protocol:
as §1

For experiment [14], the system named is Snapbeans. The experiment is described as above. Conditions: pre-emergence, 504 h, 16 lb/acre, about 3 weeks. Summed up: as §1
Experiment [15] deals with Velvetleaf. The description is as above. The note with it: Abutilon theophrasti, pre-emergence, 504 h, 16 lb/acre, about 3 weeks. A digest of the protocol:
as §1

In experiment [16] the test system is Wild Oats. The description is as above. Conditions: Avena fatua, pre-emergence, 504 h, 16 lb/acre, about 3 weeks. A digest of the protocol: as §1
Experiment [17] concerns Yellow Rocket. The description is as above. Conditions: pre-emergence, 504 h, 16 lb/acre, about 3 weeks. Summed up:
as §1

In experiment [18] the test system is Alfalfa. Nature of the experiment: Postemergence herbicidal activity, % control of plant growth. The note with it: Medicago sativa, post-emergence, 264 h, 8 lb/acre, about 11 days. Summed up: (§2)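 Spray applied ~2 wk post-sowing to soil + developing plants; 8 lb/acre from ~2 wt% soln in acetone and/or alcohol. Visual % control read ~11 d after spraying.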
Experiment [19] has as its system Barnyard Grass. The experiment is described as above. Conditions: Echinochloa crus-galli, post-emergence, 264 h, 8 lb/acre, about 11 days. Summed up: as §2
Experiment [20] relates to Cheatgrass. Described as above. The note with it: Bromus tectorum, post-emergence, 264 h, 8 lb/acre, about 11 days. A digest of the protocol: as §2
The test system of experiment [21] is Chickweed. Described as above. Conditions: post-emergence, 264 h, 8 lb/acre, about 11 days. Summed up: as §2
Experiment [22] relates to Corn. Described as above. The note with it: Zea mays, post-emergence, 264 h, 8 lb/acre, about 11 days. Summed up:
as §2

Experiment [23] concerns Crabgrass. The experiment is described as above. The note with it: Digitaria sanguinalis, post-emergence, 264 h, 8 lb/acre, about 11 days. Summed up:
as §2

The subject of experiment [24] is Cucumber. The description is as above. The note with it: Cucumis sativus, post-emergence, 264 h, 8 lb/acre, about 11 days. A digest of the protocol:
as §2

The test system of experiment [25] is Curled Dock. The experiment is described as above. Conditions: post-emergence, 264 h, 8 lb/acre, about 11 days. Summed up: as §2
Experiment [26] deals with Foxtail. Described as above. The note with it: Setaria, post-emergence, 264 h, 8 lb/acre, about 11 days. Summed up: as §2
Experiment [27] deals with Johnsongrass. The experiment is described as above. The note with it: Sorghum halepense, post-emergence, 264 h, 8 lb/acre, about 11 days. Summed up:
as §2

Experiment [28] has as its system Lambsquarters. The description is as above. The note with it: Chenopodium album, post-emergence, 264 h, 8 lb/acre, about 11 days. A digest of the protocol: as §2
Experiment [29] concerns Nutgrass. Described as above. Conditions: post-emergence, 264 h, 8 lb/acre, about 11 days. Summed up: as §2
Experiment [30] deals with Pigweed. The experiment is described as above. The note with it: Amaranthus retroflexus, post-emergence, 264 h, 8 lb/acre, about 11 days. A digest of the protocol: as §2
Experiment [31] relates to Snapbeans. The description is as above. The note with it: post-emergence, 264 h, 8 lb/acre, about 11 days. A digest of the protocol:
as §2

In experiment [32] the test system is Velvetleaf. The experiment is described as above. The note with it: Abutilon theophrasti, post-emergence, 264 h, 8 lb/acre, about 11 days. A digest of the protocol:
as §2

Experiment [33] relates to Wild Oats. The experiment is described as above. Conditions: Avena fatua, post-emergence, 264 h, 8 lb/acre, about 11 days. Summed up: as §2
The test system of experiment [34] is Yellow Rocket. The description is as above. Conditions: post-emergence, 264 h, 8 lb/acre, about 11 days. Summed up: as §2
For experiment [35], the system named is undesirable plants of both the monocotyledonous and the dicotyledonous species. Kind of experiment: Herbicidal activity, general. Conditions: for herbicidal activity: 16 pounds per acre. The text has this: All of the 3-substituted compounds of the pyrido [3,2-d]pyrimidine-2,4(1H,3H)-dione and lumazine families made from intermediate amides produced by the method of this invention have an unexpectedly high order of herbicidal activity.
In using the compound, seeds of the types of plants set forth in Table II were sown in fresh soil. In the preemergence test the soil was sprayed with a solution of the test compound immediately after the seeds were planted, and before any noticeable growth developed. The solution was about a 2 percent by weight solution of the compound in acetone and/or alcohol. The compound was applied at the rate of 16 pounds per acre of soil surface.
Approximately 3 weeks after spray application, the herbicidal activity of the compound was determined by visual observation of the treated area in comparison with untreated control areas. These observations are reported below in Table II wherein the average activity rating is reported as the percent control of plant growth.
In the postemergence test the soil and developing plants were sprayed approximately 2 weeks after the seeds were sown. The compound was applied at the rate of 8 pounds per acre from about a 2 percent by weight solution of the test compound in acetone and/or alcohol. The postemergence herbicidal activity was measured in the same way as the preemergence activity; i.e. visual observation approximately 11 days after spraying, and expressed as the percent control of plant growth.

For `O=c1[nH]c2cccnc2c(=O)n1C1CCCCC1` [3-cyclohexyl-pyrido[3,2-d] pyrimidine-2,4(1H,3H)-dione], the pest or weed control at 17933.6 g/ha with Alfalfa [1], in the experiment on Barnyard Grass [2], in the experiment with Cheatgrass [3], with Chickweed [4], with Crabgrass [6] and in the experiment with Cucumber [7] was 100% in each case. Moreover, the pest or weed control at 17933.6 g/ha with Curled Dock [8], in the experiment with Foxtail [9], in the experiment on Johnsongrass [10], in the experiment with Lambsquarters [11], with Nutgrass [12] and in the experiment with Pigweed [13] was 100% throughout. In addition, the pest or weed control at 17933.6 g/ha in the experiment on Snapbeans [14], in the experiment on Velvetleaf [15], in the experiment with Wild Oats [16] and in the experiment with Yellow Rocket [17] was 100% in each case. Moreover, the plant injury at 17933.6 g/ha in the experiment on Corn [5] amounted to 90%. Further, the pest or weed control at 8966.8 g/ha in the experiment on Alfalfa [18] came out at 30%; in the experiment on Barnyard Grass [19], 100%; in the experiment on Cheatgrass [20], 80%; with Chickweed [21], 100%; in the experiment with Crabgrass [23], 100%; in the experiment with Cucumber [24] it was 100%. The pest or weed control at 8966.8 g/ha with Curled Dock [25], in the experiment with Foxtail [26], with Johnsongrass [27], in the experiment with Lambsquarters [28], in the experiment with Nutgrass [29] and with Pigweed [30] was 100% in each case. For the same compound, the pest or weed control at 8966.8 g/ha amounted to 80% in the experiment with Snapbeans [31], 100% in the experiment on Velvetleaf [32], 100% with Wild Oats [33] and 100% with Yellow Rocket [34]. In the experiment on Corn [22], this compound displayed a plant injury at 8966.8 g/ha of 40%. Also, the “effective application rate” value in [35] (relative to 3-isopropyl-pyrido[3,2-d]pyrimidine-2,4(1H,3H)-dione, preemergence or postemergence) was “substantially the same application rates, e.g., as similar or salt solutions in water, are effective”.

For `CC(C)n1c(=O)[nH]c2cccnc2c1=O` [3-isopropyl-pyrido[3,2-d]pyrimidine-2,4(1H,3H)-dione], the pest or weed control at 17933.6 g/ha with Alfalfa [1], in the experiment on Barnyard Grass [2], in the experiment on Cheatgrass [3], in the experiment on Chickweed [4], in the experiment on Crabgrass [6] and with Cucumber [7] was 100% in each case. Also, the pest or weed control at 17933.6 g/ha turned out to be 100% in the experiment with Curled Dock [8]; 100% with Foxtail [9]; 100% in the experiment with Johnsongrass [10]; 90% in the experiment with Lambsquarters [11]; 20% in the experiment with Nutgrass [12]; 100% in the experiment with Pigweed [13]. For the same compound, the pest or weed control at 17933.6 g/ha in the experiment with Snapbeans [14], in the experiment on Velvetleaf [15], with Wild Oats [16] and in the experiment on Yellow Rocket [17] was 100% in each case. The compound further yielded a plant injury at 17933.6 g/ha with Corn [5] of 100%. Also, the pest or weed control at 8966.8 g/ha with Alfalfa [18] came to 90%; with Barnyard Grass [19], 80%; with Cheatgrass [20], 50%; with Chickweed [21], 70%; in the experiment with Crabgrass [23] it was 100%; in the experiment with Cucumber [24], 100%. For the same compound, the pest or weed control at 8966.8 g/ha in the experiment with Curled Dock [25] came out at 100%; in the experiment on Foxtail [26], 100%; with Johnsongrass [27] it was 90%; in the experiment with Lambsquarters [28], 100%; with Nutgrass [29] it was 50%; in the experiment with Pigweed [30], 100%. Further, the pest or weed control at 8966.8 g/ha with Snapbeans [31] turned out to be 90%; in the experiment with Velvetleaf [32], 100%; with Wild Oats [33], 70%; in the experiment with Yellow Rocket [34], 100%. The compound also displayed a plant injury at 8966.8 g/ha in the experiment with Corn [22] of 30%. In experiment [35] (in vivo), the “order of herbicidal activity” value is recorded as “high order of activity”.

Consider `CC(C)n1c(=O)[nH]c2cnccc2c1=O` [3-isopropyl-pyrido[3,4-d]pyrimidine-2,4(1H,3H)-dione], for which the “herbicidal activity” value in [35] was “no appreciable herbicidal activity”.

As for `CC(C)n1c(=O)[nH]c2ccncc2c1=O` [3-isopropyl-pyrido[4,3-d]pyrimidine-2,4(1H,3H)-dione], the “herbicidal activity” value in [35] is “no appreciable herbicidal activity”.

As for `O=c1[nH]c2ncccc2c(=O)n1-c1ccccc1` [3-phenyl-pyrido[2,3-d]pyrimidine-2,4(1H,3H)-dione], the “herbicidal activity” value in [35] was “no appreciable herbicidal activity”.

For orientation: pest or weed control means how far the test organism was held down. What is called plant injury is how far the test organism was held down. Read a high plant injury as strong suppression.
